Experiments:
[1] = tested on: ganciclovir (GCV)-resistant HCMV strain ADP169-GFP314; test: HCMV-GFP-based antiviral assay, ganciclovir-resistant strain; assay type: cell-based, human cytomegalovirus
Procedure: A series of laboratory variants of AD169-GFP virus that are resistant to GCV was generated. HFF were infected in 12-well plates at a multiplicity of infection (MOI) of 0.002 and incubated with […] Ganciclovir. GFP expression in infected cells was monitored microscopically, and the supernatants from the positive wells were transferred to fresh cells weekly. Thereby Ganciclovir concentrations were increased stepwise (a […] increase at each step) up to the point where total virus replication became critical and resistant virus was grown in individual wells. Using supernatants from these wells, two rounds of plaque purifications were performed in HFF. Finally, Ganciclovir-resistant viral clones (AD169-GFP314) which were able to replicate in the presence of […] GCV were isolated.
HFF were cultured to 90% confluency in 12-well plates and used for infection with AD169-GFP HCMV-virus at a tissue culture infective dose of 0.5 (GFP-TCID50 0.5, referring to an MOI of 0.002 as determined by plaque assay titration). Virus inoculation was performed for 90 min at 37° C. with occasional shaking before virus was removed and the cell layers were rinsed with phosphate-buffered saline (PBS). Then infected cell layers were incubated with 2.5 ml of MEM containing 5% (vol/vol) fetal calf serum with or without a dilution of one of the respective test compounds. Infected cells were incubated at 37° C. under a 5% CO2 atmosphere for 7 days. For lysis, […] of lysis buffer (25 mM Tris [pH 7.8], 2 mM dithiothreitol [DTT], 2 mM trans-1,2-diaminocyclohexane-N,N,N9,N9-tetraacetic acid, 1% Triton X-100, 10% glycerol) was added to each well and incubated for 10 min at 37° C., followed by a 30-min incubation at room temperature on a shaker. Lysates were centrifuged for 5 min at 15,000 rpm in an Eppendorf centrifuge to remove cell debris. […] The […] of compounds against virus replication was determined by EC50 (50% effective concentration).

[2] = tested on: HCMV strain AD169-GFP; test: HCMV-GFP-based antiviral assay in HFF; assay type: cell-based, human cytomegalovirus
[3] = tested on: HPV11; test: HPV genome replicon assay (NanoLuc) in C-33 A cells, HPV11; assay type: cell-based, Human Papilloma Virus; settings: reference compound; value within the prescribed range
Description: C-33 A, […] were obtained from ATCC and maintained in standard growth medium of MEM with Earl's salts supplemented with 10% FBS (Hyclone, Inc. Logan UT), L-glutamine, penicillin, and gentamycin.
HPV genome replicon assay was developed and expresses the essential E1 and E2 proteins from the native promoter. The E2 origin binding protein interacts with the virus origin of replication and recruits the E1 replicative helicase which unwinds the DNA and helps to recruit the cellular DNA replication machinery (including DNA polymerases, type I and type II topoisomerases, DNA ligase, single-stranded DNA binding proteins, proliferating cell nuclear antigen). The replication complex then drives the amplification of the replicon which can be assessed by the expression of a destabilized NanoLuc reporter gene carried on the replicon. In the HPV11 assay, the replicon (pMP619) is transfected into C-33 A cells grown as monolayers in 384-well plates. At 48 h post transfection, the enzymatic activity of the destabilized NanoLuc reporter is assessed with NanoGlo reagent. […] Analysis of HPV genome replication in specific types of HPV, such as HPV6, HPV11, or HPV31 is performed with plasmid systems that utilize each HPV type.

Compound	antiviral effectiveness against viruses resistant to nucleobase analogue drugs [1]	antiviral effectiveness against non-resistant viruses [2]	EC50 [3] [µM]
C=C(F)C(=O)Nc1ccc2c(-c3ccccc3CNc3nc(N[C@@H]4CCC(C)(C)NC4)nc4c(C(C)C)cnn34)nccc2c1 [Compound 174]	highly effective	highly effective	–
C=C(F)C(=O)Nc1ccc2c(-c3ccccc3CNc3nc(NC4CCC(C)(C)NC4)nc4c(C(C)C)cnn34)nccc2c1 (stereo not shown) [Compound 175]	highly effective	highly effective	–
C=C(F)C(=O)Nc1ccc2c(-c3ccccc3CNc3nc(OC4CCC(C)(C)NC4)nc4c(C(C)C)cnn34)nccc2c1 (stereo not shown) [Compound 177]	highly effective	highly effective	–
Nc1nc2c(ncn2CCOCP(=O)(O)O)c(=O)[nH]1 [PMEG]	–	–	2 to 9.2
